Data from the supplement of paper PMC10331698.
± gives the standard deviation of the averaged measurements.

Legend:
Test in all cases: level (log10 ratio to DMSO vehicle control); higher = higher biomarker level / cell amount than vehicle control
[1] = compound: CCOC(=O)CC(=O)C(F)(F)C(F)(F)F [Ethyl pentafluoropropionyl acetate] (in DMSO)
Method: (§1)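 BioMAP Diversity Plus panel of 12 human primary cell co-culture systems (3C, 4H, LPS, SAg, BT, BF4T, BE3C, CASM3C, HDF3CGF, KF3CT, MyoF, Mphg). Compounds were added 1 h before stimulation and left for 24 h (MyoF 48 h; BT 72 h for soluble read-outs or 6 d for IgG). Biomarkers were read by ELISA, cytotoxicity by SRB, PBMC viability and proliferation by Alamar Blue. Each well value was divided by the mean of 8 DMSO control wells on the same plate and log10 transformed; duplicate blinded samples were tested at 4 concentrations.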

[2] = compound: C[C@@H]1C[C@H]2[C@@H]3CCC4=CC(=O)C=C[C@]4(C)[C@@]3(F)[C@@H](O)C[C@]2(C)[C@@]1(O)C(=O)COP(=O)(O)O [Dexamethasone sodium phosphate] (in DMSO)
Method: as §1

Octafluoroadipic acid = compound: O=C(O)C(F)(F)C(F)(F)C(F)(F)C(F)(F)C(=O)O [Octafluoroadipic acid] (in DMSO)
Method: as §1

[3] = compound: O=S(=O)(O)C(F)(F)C(F)(F)OC(F)(F)C(F)(F)F [Perfluoro(2-ethoxyethane)sulfonic acid] (in DMSO)
Method: as §1

[4] = compound: OCC(F)(F)C(F)(F)C(F)(F)C(F)(F)C(F)(F)C(F)(F)CO [1H,1H,8H,8H-Perfluorooctane-1,8-diol] (in DMSO)
Method: as §1

[5] = compound: OCCC(F)(F)C(F)(F)C(F)(F)C(F)(F)F [4:2 Fluorotelomer alcohol] (in DMSO)
Method: as §1

Row | Test System | level (log10) ([1]; 6700 nM) | level (log10) ([1]; 20000 nM) | level (log10) ([1]; 60000 nM) | level (log10) ([2]; 1500 nM) | level (log10) ([2]; 4400 nM) | level (log10) ([2]; 13000 nM) | level (log10) ([2]; 40000 nM) | level (log10) (Octafluoroadipic acid; 6700 nM) | level (log10) (Octafluoroadipic acid; 20000 nM) | level (log10) (Octafluoroadipic acid; 60000 nM) | level (log10) ([3]; 6700 nM) | level (log10) ([3]; 20000 nM) | level (log10) ([3]; 60000 nM) | level (log10) ([4]; 6700 nM) | level (log10) ([4]; 20000 nM) | level (log10) ([4]; 60000 nM) | level (log10) ([5]; 6700 nM) | level (log10) ([5]; 20000 nM) | level (log10) ([5]; 60000 nM)
1 | KF3CT:IL-1alpha | -0.021 ± 0.011 | -0.0345 ± 0.022 | -0.001 ± 0.031 | -0.036 ± 0.018 | -0.035 ± 0.0057 | -0.0305 ± 0.00071 | -0.051 ± 0.044 | -0.005 ± 0.013 | -0.0245 ± 0.011 | 0.004 ± 0.02 | 0.0005 ± 0.0064 | -0.013 ± 0.025 | 0.0045 ± 0.05 | -0.0085 ± 0.022 | -0.0095 ± 0.0064 | 0.0225 ± 0.057 | -0.0325 ± 0.018 | -0.056 ± 0.098 | -0.0665 ± 0.067
2 | HDF3CGF:CXCL8/IL-8 | -0.005 ± 0.0028 | -0.0045 ± 0.011 | -0.002 ± 0.021 | -0.039 ± 0.014 | -0.0725 ± 0.005 | -0.0645 ± 0.018 | -0.0515 ± 0.039 | -0.0005 ± 0.0078 | 0.003 ± 0.0014 | 0.0065 ± 0.0092 | -0.015 ± 0.0028 | -0.0075 ± 0.0064 | 0.0045 ± 0.0035 | 0.002 ± 0.0071 | -0.0015 ± 0.005 | 0.009 ± 0.0099 | -0.007 ± 0.0028 | -0.0105 ± 0.0064 | -0.002 ± 0.011
3 | HDF3CGF:PAI-I | -0.01 ± 0.025 | 0.004 ± 0.024 | 0.031 ± 0.062 | 0.091 ± 0.011 | 0.0875 ± 0.0035 | 0.072 ± 0.0042 | 0.039 ± 0.0099 | -0.008 ± 0.017 | -0.017 ± 0.0071 | 0.0115 ± 0.037 | 0.025 ± 0.0014 | -0.003 ± 0.0071 | -0.021 ± 0.013 | -0.0085 ± 0.0092 | -0.026 ± 0.0057 | -0.023 ± 0.017 | -0.057 ± 0.086 | 0.008 ± 0.072 | -0.0255 ± 0.076
4 | HDF3CGF:TIMP-1 | -0.0085 ± 0.037 | -0.007 ± 0.0071 | -0.0305 ± 0.012 | -0.0755 ± 0.04 | -0.0735 ± 0.053 | -0.112 ± 0.07 | -0.175 ± 0.081 | -0.0055 ± 0.03 | 0.022 ± 0.059 | 0.023 ± 0.055 | 0.0415 ± 0.067 | 0.048 ± 0.04 | 0.0955 ± 0.071 | -0.002 ± 0.0071 | -0.003 ± 0.0085 | 0.019 ± 0.025 | -0.045 ± 0.018 | -0.02 ± 0.059 | 0.0035 ± 0.005
5 | lMphg:CD69 | -0.0405 ± 0.0064 | 0.0005 ± 0.064 | 0.0075 ± 0.12 | 0.039 ± 0.014 | -0.007 ± 0.017 | -0.0155 ± 0.029 | -0.0585 ± 0.022 | 0.0095 ± 0.037 | 0.0035 ± 0.081 | -0.008 ± 0.054 | -0.043 ± 0.075 | 0.011 ± 0.0099 | -0.0415 ± 0.0078 | -0.0165 ± 0.036 | -0.024 ± 0.025 | 0.001 ± 0.038 | 0.0115 ± 0.07 | 0.007 ± 0.041 | 0.0155 ± 0.0035
6 | KF3CT:TIMP-2 | 0.004 ± 0.011 | -0.0105 ± 0.0078 | 0.0175 ± 0.0035 | -0.0095 ± 0.025 | -0.0005 ± 0.021 | -0.0025 ± 0.005 | 0.0155 ± 0.069 | -0.001 ± 0.025 | -0.0015 ± 0.005 | 0.0105 ± 0.0092 | 0.0035 ± 0.0092 | 0.01 | 0.0155 ± 0.005 | 0.0065 ± 0.042 | -0.0055 ± 0.018 | -0.006 ± 0.016 | -0.0185 ± 0.14 | -0.0295 ± 0.074 | 0.004 ± 0.054
7 | lMphg:IL-1alpha | -0.0145 ± 0.011 | -0.016 ± 0.024 | 0.0045 ± 0.0092 | -0.0345 ± 0.005 | -0.0335 ± 0.0092 | -0.102 ± 0.05 | -0.096 ± 0.0099 | -0.0495 ± 0.013 | -0.041 ± 0.027 | 0.039 ± 0.031 | 0.006 ± 0.011 | 0.012 ± 0.0071 | 0.0335 ± 0.026 | -0.011 ± 0.041 | -0.012 ± 0.0085 | 0.0855 ± 0.047 | -0.0295 ± 0.013 | -0.0105 ± 0.005 | 0.0075 ± 0.028
8 | HDF3CGF:M-CSF | -0.022 ± 0.017 | -0.034 ± 0.037 | -0.0135 ± 0.094 | 0.0645 ± 0.053 | 0.049 ± 0.096 | 0.0505 ± 0.094 | 0.0175 ± 0.13 | -0.0095 ± 0.005 | -0.01 ± 0.0085 | 0.0255 ± 0.036 | 0.004 ± 0.011 | -0.0075 ± 0.0092 | -0.009 ± 0.016 | 0.0115 ± 0.029 | 0.015 ± 0.0085 | 0.0535 ± 0.054 | -0.027 ± 0.067 | -0.035 ± 0.023 | -0.004 ± 0.0057
9 | CASM3C:IL-6 | -0.022 ± 0.011 | -0.021 ± 0.023 | 0.009 ± 0.057 | -0.166 ± 0.096 | -0.232 ± 0.023 | -0.246 ± 0.015 | -0.189 ± 0.092 | -0.0225 ± 0.0092 | -0.0115 ± 0.0064 | 0.013 ± 0.061 | -0.024 ± 0.0028 | -0.041 ± 0.033 | -0.0725 ± 0.015 | -0.014 ± 0.0014 | -0.02 ± 0.0099 | -0.0005 ± 0.04 | -0.0195 ± 0.005 | -0.023 ± 0.0099 | -0.016 ± 0.054
10 | HDF3CGF:TIMP-2 | -0.05 ± 0.044 | -0.012 ± 0.024 | -0.069 ± 0.011 | 0.0475 ± 0.028 | 0.062 ± 0.081 | 0.061 ± 0.065 | 0.0585 ± 0.0021 | 0.007 ± 0.0085 | 0.02 ± 0.023 | 0.0055 ± 0.0078 | -0.011 ± 0.0099 | -0.0305 ± 0.015 | 0.02 ± 0.059 | 0.003 ± 0.0014 | 0.0255 ± 0.0035 | 0.0145 ± 0.00071 | -0.0305 ± 0.026 | -0.01 ± 0.017 | -0.044 ± 0.027
11 | MyoF:Collagen I | -0.0085 ± 0.026 | -0.0155 ± 0.036 | -0.014 ± 0.041 | 0.032 ± 0.021 | 0.032 ± 0.0057 | 0.006 ± 0.0071 | 0.027 ± 0.0042 | -0.0165 ± 0.018 | -0.021 ± 0.021 | -0.005 ± 0.0042 | 0.016 ± 0.011 | -0.0025 ± 0.015 | 0.039 ± 0.014 | -0.0045 ± 0.025 | -0.0165 ± 0.013 | -0.0145 ± 0.0035 | -0.031 ± 0.044 | -0.031 ± 0.041 | 0.01 ± 0.028
12 | HDF3CGF:Proliferation 72hr | -0.019 ± 0.073 | -0.017 ± 0.092 | 0.036 ± 0.017 | 0.0165 ± 0.011 | -0.0255 ± 0.047 | 0.0645 ± 0.015 | 0.095 ± 0.064 | -0.036 ± 0.0042 | 0.024 ± 0.047 | 0.013 ± 0.017 | -0.0225 ± 0.021 | 0.004 ± 0.0042 | -0.067 ± 0.03 | -0.04 ± 0.013 | -0.0035 ± 0.026 | -0.102 ± 0.027 | -0.014 ± 0.045 | -0.022 ± 0.0014 | 0.033 ± 0.027
13 | 3C:CD142/Tissue Factor | -0.006 ± 0.0071 | -0.019 ± 0.031 | -0.033 | 0.034 ± 0.038 | 0.0265 ± 0.015 | 0.0335 ± 0.0078 | 0.0775 ± 0.028 | 0.02 ± 0.061 | 0.0375 ± 0.067 | 0.0085 ± 0.061 | 0.013 ± 0.0057 | -0.001 ± 0.024 | 0.017 ± 0.0042 | -0.0245 ± 0.026 | 0.0195 ± 0.026 | 0.0425 ± 0.012 | -0.016 ± 0.018 | -0.04 ± 0.045 | -0.0375 ± 0.00071
14 | HDF3CGF:MMP-1 | 0.01 ± 0.028 | 0.022 ± 0.0071 | 0.029 ± 0.034 | -0.0695 ± 0.011 | -0.065 ± 0.016 | -0.098 ± 0.018 | -0.081 ± 0.042 | -0.0115 ± 0.0078 | 0.0025 ± 0.0035 | 0.0015 ± 0.0064 | -0.004 ± 0.0071 | -0.0135 ± 0.029 | -0.0235 ± 0.053 | 0.0005 ± 0.013 | -0.0025 ± 0.013 | 0.008 ± 0.0071 | -0.025 ± 0.0057 | -0.0075 ± 0.011 | 0.0035 ± 0.0035
15 | MyoF:Collagen III | -0.0045 ± 0.016 | -0.0045 ± 0.011 | -0.009 ± 0.0042 | 0.0055 ± 0.021 | 0.0255 ± 0.035 | 0.0185 ± 0.021 | 0.028 ± 0.018 | -0.002 ± 0.021 | -0.0085 ± 0.028 | -0.0015 ± 0.035 | -0.0035 ± 0.0092 | -0.005 ± 0.0071 | 0.0105 ± 0.012 | -0.008 ± 0.013 | -0.016 | -0.005 ± 0.0028 | -0.011 ± 0.038 | 0.007 ± 0.042 | 0.0245 ± 0.032
